# Source: patent US9486440B2, “Uses of indole-ketones or indolidones as neuro-protective drugs” (UNIVERSITY OF MACAU, priority 2011, dated 2016)
# “Also recorded” adds a separate entry of the source.
# How the values were obtained:
# [1] = tested on: CGNs; assay: MPP+-induced neurotoxicity in CGNs, MTT and LDH assays; format: cell-based, rat; conditions: for MPP+-induced neurotoxicity, co-administration: co-administrated with 35 μM MPP+, SU4312 10-20 μM, PTK787/ZK222584 10 μM, MTT at 24 hours; for MPP+-induced cell death (cell viability, MTT and LDH assays): pre-treatment 2 hours, then 35 μM MPP+ for 24 hours; for cell proliferative or cytotoxic effects of the drug alone: without MPP+, 26 hours, SU4312 1-30 μM, SU5416 30 μM, sunitinib 2 μM
# [2] = tested on: zebrafish larvae; assay: Locomotion behavioral test of zebrafish larvae; format: in vivo; conditions: for MPTP-induced deficit of swimming behavior (total distance travelled): 200 μM MPTP 2 days, then 10 μM MPTP plus drug 3 days, L-deprenyl 20 μM, L-dopa 150 μM
# Method: Wild-type zebrafish (AB strain) and Tg (fli-1:EGFP) transgenic zebrafish were maintained as described in the Zebrafish Handbook (Westerfield, 1993). Zebrafish embryos were generated by natural pair-wise mating (3-12 months old) and raised at 28.5° C. in embryo medium (13.7 mM NaCl, 540 μM KCl, pH 7.4, 25 μM Na2HPO4, 44 μM KH2PO4, 300 μM CaCl2, 100 μM MgSO4, 420 μM NaHCO3, pH 7.4). […] An equal concentration of DMSO in embryo medium was used as vehicle control in each experiment.
# Thus the MPTP exposure needs to last 5 day from 1 dpf. […] Thus subsequent locomotion behavioral studies were done with 200 μM MPTP for treatment for 2 days at 1 dpf then replacing insult with 10 μM MPTP for incubation for another 3 days.
# (§1) After drug treatment, zebrafish larvae at 6 dpf were transferred into 96-well plates (1 fish/well and 12 larvae/group). Fishes responded with excessive stress reaction (such as rapid and disorganized swimming or immobility for 2 min) due to the handling and monitoring of the behavior were discarded. The experiments were performed in a calm enclosed area. The larvae were allowed to habituate to the new environment for 30 min prior to experiments. Behavior was monitored by an automated video tracking system (Viewpoint, ZebraLab, LifeSciences). The 96-well plates and camera were housed inside a Zebrabox and the swimming pattern of each fish was recorded for 10 min and repeated 3 times, once every other 10 min. The total distance moved was defined as the distance (in cm) that the fish had moved during one session (10 min).
# Normally as late as 3 dpf, zebrafish larvae show very little spontaneous swimming, but by 5 dpf they spontaneously swim longer distances and independently search for food. The MPTP exposure therefore needs to last 5 days from 1 dpf. […] Thus subsequent locomotion behavioral studies were performed with 200 μM MPTP for 2-day treatment at 1 dpf then replacing with media containing 10 μM MPTP for another 3-day incubation.
# as §1, with “The larvae were discarded due to” for “Fishes responded with”, “reaction to the handling and monitoring of behavior” for “reaction”, “min).” for “min) due to the handling and monitoring of the behavior were discarded.”, “sealed” for “enclosed”, “min. Swimming behavior” for “min prior to experiments. Behavior”, “for” for “repeated”
Structure (SMILES),"MPP+-induced neurotoxicity, co-administration [1]","MPP+-induced cell death (cell viability, MTT and LDH assays) [1]",MPTP-induced deficit of swimming behavior (total distance travelled) [2],"swimming behavior of normal zebrafish larvae, drug alone ([2]; zebrafish, in vivo)",cell proliferative or cytotoxic effects of the drug alone [1],"swimming behavior of normal zebrafish larvae, drug alone ([2]; without MPTP)"
Clc1ccc(Nc2nnc(Cc3ccncc3)c3ccccc23)cc1 [PTK787/ZK222584],did not show neuroprotective effects,at 3-10 μM failed to block neuronal loss in vitro,but not PTK787/ZK222584 ameliorated MPTP-induced deficit of swimming behavior,Neither SU4312 nor PTK787/ZK222584 treatment alone notably altered the swimming behavior,,
"Cc1cc(C)c(/C=C2\C(=O)Nc3ccccc32)[nH]1 [SU5416, (3Z)-3-[(3,5-dimethyl-1H-pyrrol-2-yl)methylidene]-1,3-dihydro-2H-indol-2-one]",,prevented 35 μM MPP^+-induced cell death in a concentration-dependent manner,ameliorated the MPTP-induced deficit of swimming behavior,,did not produce any cell proliferative or cytotoxic effects,
"CN(C)c1ccc(C=C2C(=O)Nc3ccccc32)cc1 [SU4312, 3-[4-(dimethylamino)benzylidenyl]indolin-2-one]",still had neuroprotective effects,prevented MPP^+-induced cell death in a concentration-dependent manner,ameliorated MPTP-induced deficit of swimming behavior,,did not affect cell proliferation or show any cytotoxic effects; also recorded: did not induce any neurotoxicity,Neither SU4312 nor PTK787/ZK222584 treatment alone notably altered the swimming behavior
